Test [1] addresses T1, Vitamin D3 receptor (Sus scrofa) (UniProt A3RGC1).
T1 sequence (whole entry): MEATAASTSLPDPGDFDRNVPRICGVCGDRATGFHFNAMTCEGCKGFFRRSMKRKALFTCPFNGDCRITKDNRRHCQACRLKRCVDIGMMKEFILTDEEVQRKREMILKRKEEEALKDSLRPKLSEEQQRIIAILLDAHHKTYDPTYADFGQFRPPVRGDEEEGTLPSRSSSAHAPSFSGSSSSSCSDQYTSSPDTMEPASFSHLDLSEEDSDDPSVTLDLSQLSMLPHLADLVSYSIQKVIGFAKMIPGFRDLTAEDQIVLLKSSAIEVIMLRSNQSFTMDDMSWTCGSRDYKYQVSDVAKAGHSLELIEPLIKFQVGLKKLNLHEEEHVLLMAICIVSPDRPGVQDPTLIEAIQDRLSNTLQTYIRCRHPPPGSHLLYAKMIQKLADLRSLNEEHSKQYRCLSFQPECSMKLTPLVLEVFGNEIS
The test is described as follows: (§1) Affinity for porcine Vitamin D3 receptor.

The target in test [2] is T2, Vitamin D-binding protein (Rattus norvegicus) (UniProt P04276).
T2 sequence (whole entry): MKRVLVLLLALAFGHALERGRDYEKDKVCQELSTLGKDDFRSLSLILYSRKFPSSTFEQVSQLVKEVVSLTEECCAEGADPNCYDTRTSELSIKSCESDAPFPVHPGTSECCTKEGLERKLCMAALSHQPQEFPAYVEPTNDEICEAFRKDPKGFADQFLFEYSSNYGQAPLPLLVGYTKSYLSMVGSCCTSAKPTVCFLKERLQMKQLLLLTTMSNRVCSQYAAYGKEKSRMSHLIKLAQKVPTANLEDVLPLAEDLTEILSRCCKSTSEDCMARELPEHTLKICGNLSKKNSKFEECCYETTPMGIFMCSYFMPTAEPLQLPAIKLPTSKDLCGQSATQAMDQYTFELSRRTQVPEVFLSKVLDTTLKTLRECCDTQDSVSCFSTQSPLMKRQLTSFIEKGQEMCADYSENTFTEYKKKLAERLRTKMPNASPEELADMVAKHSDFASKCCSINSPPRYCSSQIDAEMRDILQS
Kind of test: Binding affinity for rat Vitamin D binding protein. Details: reference not given here.

The target in test [3] is T3, Vitamin D3 receptor (Bos taurus) (UniProt Q28037).
T3 sequence (whole entry): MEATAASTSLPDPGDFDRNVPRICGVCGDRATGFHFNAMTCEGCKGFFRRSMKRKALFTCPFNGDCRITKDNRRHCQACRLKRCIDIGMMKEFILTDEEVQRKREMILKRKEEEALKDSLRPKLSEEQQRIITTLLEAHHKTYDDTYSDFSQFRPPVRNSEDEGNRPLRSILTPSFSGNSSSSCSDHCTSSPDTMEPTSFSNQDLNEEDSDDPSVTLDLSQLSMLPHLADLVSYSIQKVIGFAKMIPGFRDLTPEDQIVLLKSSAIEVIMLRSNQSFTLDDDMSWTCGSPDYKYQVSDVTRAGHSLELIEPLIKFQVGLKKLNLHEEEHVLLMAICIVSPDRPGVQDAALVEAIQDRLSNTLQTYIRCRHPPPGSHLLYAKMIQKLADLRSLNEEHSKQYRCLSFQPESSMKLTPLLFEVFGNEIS
Kind of test: Affinity for bovine Vitamin D3 receptor. Details: reference not given here.

Test [4] relates to Rattus norvegicus. Kind of test: In vivo calcemic activity expressed as relative activity for Intestinal calcium transport (ICA) in vitamin D deficient rats.
The subject of test [5] is MCF7. The test is described as follows: In vitro activity expressed as relative activity to inhibit the proliferation of human breast cancer cells (MCF-7) by measuring [3H]thymidine incorporation. For orientation: Incorporation of labelled thymidine or its analogues reports DNA synthesis.
For test [6], the system named is Keratinocyte cell line. Kind of test: In vitro activity expressed as relative activity to inhibit the proliferation of primary cultures of human foreskin keratinocytes by measuring [3H]thymidine incorporation.
The test system of test [7] is Rattus norvegicus. The test is described as follows: In vivo calcemic activity expressed as relative activity for Bone calcium mobilization (BCM) in vitamin D deficient rats.
A short description of test [8]: Gene transcriptional activity against osteopontin (OPN). Type of test: functional.
The test system of a further test is HL-60. The test is described as follows: In vitro activity expressed as relative activity to induce the differentiation of human promyelocytic leukemia (HL-60) cells by NBT reduction assay.
Test [9] addresses T1, Vitamin D3 receptor (Sus scrofa). The description is as §1. Details: reference not given here.
Test [10] relates to Keratinocyte cell line. The test is described as follows: In vitro activity expressed as relative activity to inhibit the proliferation of primary cultures of human foreskin keratinocytes by measuring [3H]thymidine incorporation. The source holds these as a separate data set.
For test [11], the system named is MCF7. The test is described as follows: In vitro activity expressed as relative activity to inhibit the proliferation of human breast cancer cells (MCF-7) by measuring [3H]thymidine incorporation. This is another data set of the same source.

Molecules are shown by their SMILES. Some results are limits rather than exact numbers.

This is an account of results in ChEMBL document CHEMBL1132088, “Three-dimensional structure-function relationship of vitamin D: side chain location and various activities” (1999).

As to `C=C1/C(=C\C=C2/CCC[C@]3(C)[C@@H]([C@@H](C)CCCC(C)(C)O)CC[C@@H]23)C[C@@H](O)C[C@@H]1O`, the Activity turned out to be 500 in [1] and 4000 in [2].
On to `C=C1/C(=C\C=C2/CCC[C@]3(C)[C@@H]([C@H](C)CCCC(C)(C)O)CC[C@@H]23)C[C@@H](O)C[C@@H]1O` [CALCITRIOL], for which the Activity in test [3], in [2] and in test [9] was 100 each time. Also, the relative activity (in the test on Rattus norvegicus [4]; in the test on MCF7 [5]; in the test with Keratinocyte cell line [6]; in the test with Rattus norvegicus [7]; in test [8]; in the test on HL-60) was 100% in each case.
With `C=C1/C(=C\C=C2/CCC[C@]3(C)[C@@H]([C@H](C)[C@H](C)CCC(C)(C)O)CC[C@@H]23)C[C@@H](O)C[C@@H]1O`, the Activity was 2 in [3], 0.45 in test [2] and 1.7 in test [9]. Besides, the relative activity with Rattus norvegicus [4] was 25%; with Rattus norvegicus [7] it was 32%; in test [8], 1%; in the test with HL-60, 1.3%.
With `C=C1/C(=C\C=C2/CCC[C@]3(C)[C@@H]([C@@H](C)[C@@H](C)CCC(C)(C)O)CC[C@@H]23)C[C@@H](O)C[C@@H]1O`, the Activity in [3] was 0.4; in [2], less than 0.25; in test [9], 1. In addition, the relative activity in the test with Keratinocyte cell line [10] was 60%; in the test with Rattus norvegicus [4], less than 1%; in the test on MCF7 [5], 70%; with Rattus norvegicus [7], 5%; in [8], 3%; in the test on HL-60, 8%.
In the case of `C=C1/C(=C\C=C2/CCC[C@]3(C)[C@@H]([C@@H](C)[C@H](C)CCC(C)(C)O)CC[C@@H]23)C[C@@H](O)C[C@@H]1O`, the values for the Activity in [3], in test [2] and in test [9] were 1100, less than 0.25 and 2000, respectively. Moreover, the relative activity in the test with Keratinocyte cell line [10] is 9000%; in the test with MCF7 [11] it was 15000%; in the test on Rattus norvegicus [4] it was 51%; in the test on Rattus norvegicus [7], 220%; in [8], 10000%; in the test with HL-60 it was 12000%.
Regarding `C=C1/C(=C\C=C2/CCC[C@]3(C)[C@@H]([C@H](C)[C@@H](C)CCC(C)(C)O)CC[C@@H]23)C[C@@H](O)C[C@@H]1O`, the Activity came to 33 in [3], 67 in test [2] and 33 in [9]. For the same compound, the relative activity in the test on Rattus norvegicus [4] is 50%; in the test on Rattus norvegicus [7], 26%; in [8] it was 22%; with HL-60, 100%.
